According to patent publication US20120045523A1, “COMBINATION OF A TLR3 LIGAND AND A CHEMOTHERAPY AGENT WHICH ACTS ON THE INTRINSIC "APOPTOSIS" PATHWAY IN THE TREATMENT OF CANCER” (UNIVERSITE CLAUDE BERNARD LYON I, priority 2008, published 2012):
Like-named read-outs stand apart in the source and are kept apart here.

Columns and labels:
NCI-H292 cells [1] = experiment: Number of living cells (MTS, CellTiter 96 AQueous One) after chemotherapy and/or poly(I:C); conditions: for CI (combination index): agent in combination with poly(I:C), average CI; for nature of interaction with poly(I:C), from CI: combination with poly(I:C)
NCI-H1703 cells [2] = experiment: as above; format: cell-based, human; conditions: for CI (combination index) / IC50 / nature of interaction with poly(I:C), from CI / reduction of the number of living cells: NCI-H1703; for CI (combination index): agent in combination with poly(I:C), average CI; for nature of interaction with poly(I:C), from CI: combination with poly(I:C); for cytotoxicity at 4 µM: NCI-H1703, NCI-H1703, FIG. 1B, read-out: loss of viable cells; for reduction of the number of living cells: FIG. 1A
NCI-H292 cells [3] = experiment: Annexin V-FITC/propidium iodide labeling, flow cytometry (apoptosis); format: cell-based, human; conditions: NCIH-292; annexin V after 24 h; concentrations at IC50; FIG. 4
Description: The duplexes of control small interfering RNA (siRNA; Dharmacon) and siRNA specific for caspase 8 and caspase 9 (Qiagen) used are as follows: 1) control: ON-TARGETplus siCONTROL Non-Targeting siRNA #3; caspase 8 sense 5′-r(GAG UCU GUG CCC AAA UCA A)dTdT-3′, caspase 8 antisense 5′-r(UUG AUU UGG GCA CAG ACU C)dTdT-3′; caspase 9 sense 5′-r(GAG UGG CUC CUG GUA CGU U)dTdT-3′, caspase 9 antisense 5′-r(AAC GUA CCA GGA GCC ACU C)dTdT-3′. The siRNAs were transfected by the HiPerFect (Qiagen) transfection reagent according to the manufacturer's recommendations. Briefly, NCI-H1703 or NCI-H292 cells are cultured in 100 mm dishes, dislodged by trypsin, placed in 24-well plates at a concentration of 50,000 cells in 400 μl of medium per well and incubated at 37° C. during preparation of the mixes. Mixes for each well of a 24-well plate are prepared as follows: the siRNA duplexes are diluted in 100 μl of serum-free and antibiotic-free culture medium, 3 μl of HiPerFect is added, and then the solution is vortexed and incubated for 5-10 min at room temperature. […] For these conditions, the effectiveness of caspase 8 and caspase 9 siRNAs in decreasing the level of expression of caspase 8 and caspase 9 proteins, respectively, were measured by western blot, and reaches roughly 85% for caspase 8 siRNA and 75% for caspase 9 siRNA. […]

NCI-H1703 cells [4] = experiment: as above; format: cell-based, human; conditions: for effect of 2 h exposure to agent before poly(I:C) on percentage of apoptotic cells: NCIH-1703, annexin V after 24 h, concentrations at IC50, FIG. 4
Description: The duplexes of control small interfering RNA (siRNA; Dharmacon) and siRNA specific for caspase 8 and caspase 9 (Qiagen) used are as follows: 1) control: ON-TARGETplus siCONTROL Non-Targeting siRNA #3; caspase 8 sense 5′-r(GAG UCU GUG CCC AAA UCA A)dTdT-3′, caspase 8 antisense 5′-r(UUG AUU UGG GCA CAG ACU C)dTdT-3′; caspase 9 sense 5′-r(GAG UGG CUC CUG GUA CGU U)dTdT-3′, caspase 9 antisense 5′-r(AAC GUA CCA GGA GCC ACU C)dTdT-3′. The siRNAs were transfected by the HiPerFect (Qiagen) transfection reagent according to the manufacturer's recommendations. Briefly, NCI-H1703 or NCI-H292 cells are cultured in 100 mm dishes, dislodged by trypsin, placed in 24-well plates at a concentration of 50,000 cells in 400 μl of medium per well and incubated at 37° C. during preparation of the mixes. Mixes for each well of a 24-well plate are prepared as follows: the siRNA duplexes are diluted in 100 μl of serum-free and antibiotic-free culture medium, 3 μl of HiPerFect is added, and then the solution is vortexed and incubated for 5-10 min at room temperature. 100 μl of mix is then added drop by drop to the cells and the mixture is homogenized by shaking the plate. The culture medium is changed the following day. The final siRNA concentration is 5 nM and treatment with poly(I:C) begins 72 h after transfection. For these conditions, the effectiveness of caspase 8 and caspase 9 siRNAs in decreasing the level of expression of caspase 8 and caspase 9 proteins, respectively, were measured by western blot, and reaches roughly 85% for caspase 8 siRNA and 75% for caspase 9 siRNA.
In relation to the mechanism of reduction of the number of living cells, the percentage of cells labeled with annexin V after culture after treatment with poly(I:C) was determined by flow cytometry. […] Seventy-two hours after transfection of the control (sictrl), caspase (sicasp8), caspase 9 (sicasp9) or caspase 8+caspase 9 (sicasp8+9) siRNAs, NCI-H1703 cells are treated with 100 μg/ml of poly(I:C) for 24 h or are not treated. The percentage of annexin V-positive cells is measured by flow cytometry. The results presented are the average of three experiments carried out independently. Error Bar, ±SE.
Poly(I:C) induces apoptosis of NSCLC NCIH-1703 and NCIH-292 cell lines. To determine whether the greater reduction in the number of cells alive after treatment with the combination of poly(I:C) and cisplatin or etoposide resulted at least partially from an increase in apoptosis, the cells were labeled with annexin V after 24 h of culture as described in the “Materials and methods” section above.

NCI-H1703 cells [5] = experiment: Viability of cells cultured 24 h with poly(I:C) and wortmannin; format: cell-based, human
Method: Similarly, a study was undertaken to determine the viability of cells of the NCI-H1703 human squamous cell lung cancer cell line cultured for 24 h in the presence of TLR3 ligand (poly(I:C), 100 μg/ml) at various concentrations (0 μM, 0.1 μM and 1.0 μM) of wortmannin, a specific PI3 kinase inhibitor.
In the same way, a study was undertaken to determine the percentage of cells of the NCI-H1703 human squamous cell lung cancer cell line in apoptosis (FACS analysis after labeling with annexin V-FITC/propidium iodide) after culture for 24 h in the presence of TLR3 ligand (poly(I:C), 100 μg/ml) with various concentrations (0 μM, 0.1 μM and 1.0 μM) of specific PI3 kinase inhibitor, wortmannin (WM). […] Moreover, the synergy is strong: with 1 μM wortmannin alone, 6% fewer living cells are observed after 24 h; with 100 μg/ml poly(I:C) alone, 26% fewer living cells are observed after 24 h; when both molecules are used in combination at these same concentrations, however, 71% fewer living cells are observed after 24 h.

TLR3 = experiment: Apoptosis induced by TLR3 ligands, with siRNA inhibition of receptors; format: cell-based
Description: “Specific TLR3 ligand” refers to a ligand that is recognized only by the TLR3 membrane receptor, and not by intracellular receptors such as RIG-I, MDA-5 and PKR. Examples of such a ligand includes the ligand poly(A:U) or specific synthetic double-stranded RNA, in contrast with poly(I:C) whose activity is based not only on its interaction with TLR3 but also by intracellular receptors, whereas poly(A:U) acts specifically on TLR3.

[6] = chemotherapeutic agent used alone, 2 h exposure, then 70 h culture, read-out: IC50
[7] = NCI-H292, chemotherapeutic agent used alone, 2 h exposure, then 70 h culture
[8] = Homo sapiens, chemotherapeutic agent used alone, 2 h exposure, then 70 h culture, read-out: IC50

Row | IC50 (NCI-H292 cells [1]; Homo sapiens, NCI-H292) | IC50 (NCI-H1703 cells [2]; [8]) | Compound | CI (combination index) (NCI-H292 cells [1]; NCI-H292) | nature of interaction with poly(I:C), from CI (NCI-H292 cells [1]; NCI-H292) | CI (combination index) (NCI-H1703 cells [2]) | nature of interaction with poly(I:C), from CI (NCI-H1703 cells [2]) | other results
1 | 133 µM | – | O=c1[nH]cc(F)c(=O)[nH]1 [5-Fluouracile, 5-fluorouracil] | 0.78 ± 0.09 | moderate synergy | – | – | –
2 | 1.03 µM | 3.73 µM | COc1cccc2c1C(=O)c1c(O)c3c(c(O)c1C2=O)C[C@@](O)(C(=O)CO)C[C@@H]3O[C@H]1C[C@H](N)[C@H](O)[C@H](C)O1 [Doxorubicin, doxorubicin] | 0.62 ± 0.08 | strong synergy | 0.72 ± 0.06 | strong synergy | –
3 | 0.6 µM | 0.9 µM | Nc1ccn([C@@H]2O[C@H](CO)[C@@H](O)C2(F)F)c(=O)n1 [Gemcitabine, gemcitabine] | 1.3 ± 0.24 | antagonism | 1.0 ± 0.07 | additivity without synergy | –
4 | 0.21 µM | 0.12 µM | CC(=O)O[C@H]1C(=O)[C@@]2(C)[C@H]([C@H](OC(=O)c3ccccc3)[C@]3(O)C[C@H](OC(=O)[C@H](O)[C@@H](NC(=O)c4ccccc4)c4ccccc4)C(C)=C1C3(C)C)[C@]1(OC(C)=O)CO[C@@H]1C[C@@H]2O [Paclitaxel, paclitaxel] | 0.71 ± 0.0064 | moderate synergy | 0.83 ± 0.012 | moderate synergy | –

The remaining lines, values behind:

Row | Compound | IC50 (NCI-H292 cells [1]; Homo sapiens, NCI-H292) | IC50 (NCI-H1703 cells [2]; [8]) | CI (combination index) (NCI-H292 cells [1]; NCI-H292) | nature of interaction with poly(I:C), from CI (NCI-H292 cells [1]; NCI-H292) | CI (combination index) (NCI-H1703 cells [2]) | nature of interaction with poly(I:C), from CI (NCI-H1703 cells [2]) | other results
5 | N.N.[Cl][Pt][Cl] [Cisplatin, cisplatin] | – | – | 0.50 ± 0.08 | strong synergy | 0.62 ± 0.03 | strong synergy | IC50 (NCI-H1703 cells [2]; [6]): 1.1 µM; effect of 2 h exposure to agent before poly(I:C) on percentage of apoptotic cells (NCI-H292 cells [3]): statistically significant only for the NCIH-292 cell line; effect of 2 h exposure to agent before poly(I:C) on percentage of apoptotic cells (NCI-H1703 cells [4]): increases the percentage of apoptotic cells; IC50 (NCI-H292 cells [1]; [7]): 3.4 µM
6 | CC(=O)O[C@@]12CO[C@@H]1C[C@H](O)[C@@]1(C)C(=O)[C@H](O)C3=C(C)[C@@H](OC(=O)[C@H](O)[C@@H](NC(=O)OC(C)(C)C)c4ccccc4)C[C@@](O)([C@@H](OC(=O)c4ccccc4)[C@H]21)C3(C)C [Docetaxel, docetaxel] | 10.6 µM | – | 0.68 ± 0.2 | moderate synergy | – | – | –
7 | COc1cc([C@@H]2c3cc4c(cc3[C@@H](O[C@@H]3O[C@@H]5CO[C@@H](C)O[C@H]5[C@H](O)[C@H]3O)[C@H]3COC(=O)[C@H]23)OCO4)cc(OC)c1O [Etoposide, etoposide] | 18.7 µM | 32.7 µM | 0.68 ± 0.11 | strong synergy | 0.59 ± 0.06 | strong synergy | cytotoxicity at 4 µM (NCI-H1703 cells [2]; Homo sapiens, etoposide 4 μM, then addition of 60 μg/ml poly(I:C)): ~60%; cytotoxicity at 4 µM (NCI-H1703 cells [2]; Homo sapiens, etoposide alone 4 μM): ~25%; effect of 2 h exposure to agent before poly(I:C) on percentage of apoptotic cells (NCI-H292 cells [3]): significant additive effect; effect of 2 h exposure to agent before poly(I:C) on percentage of apoptotic cells (NCI-H1703 cells [4]): significant additive effect; IC50 (NCI-H292 cells [1]; Homo sapiens, NCI-H292, read-out: concentration of etoposide in combination that decreases living cells by 50%): ~8 µM
8 | O=C1[O][Pt]2([NH][C@@H]3CCCC[C@H]3[NH]2)[O]C1=O [Oxaliplatin, oxaliplatin] | – | – | – | strong synergy | – | strong synergy | IC50 (NCI-H1703 cells [2]; [6]): 170 µM; IC50 (NCI-H292 cells [1]; [7]): 123 µM
9 | COC[C@H]1OC(=O)c2coc3c2[C@@]1(C)C1=C(C3=O)[C@@H]2CCC(=O)[C@@]2(C)C[C@H]1OC(C)=O [wortmannin] | – | – | – | – | – | – | fewer living cells (NCI-H1703 cells [5]; 1 μM wortmannin + 100 μg/ml poly(I:C) in combination): 71%; fewer living cells (NCI-H1703 cells [5]; 1 μM wortmannin alone): 6%
10 | polyadenylic-polyuridylic acid [poly(A:U)] | – | – | – | – | – | – | induction of apoptosis (TLR3; cells sensitive to poly(I:C)): triggers apoptosis
11 | polyinosinic-polycytidylic acid [poly(I:C)] | – | – | – | – | – | – | reduction of the number of living cells (NCI-H1703 cells [2]; poly(I:C) 4 μg/ml after pre-incubation for 2 h with 20 μM etoposide): ~70%; reduction of the number of living cells (NCI-H1703 cells [2]; poly(I:C) alone 4 μg/ml): ~35%; IC50 (NCI-H1703 cells [2]; poly(I:C) used alone, 50% fewer cells than untreated control): 19.9 µg/mL; effect of siRNA inhibition of RIG-I, MDA-5 and PKR expression on poly(I:C) apoptotic activity (TLR3; siRNA against RIG-I, MDA-5, PKR): has no effect; effect of siRNA inhibition of TLR3 or TRIF on poly(I:C)-induced apoptosis (TLR3; siRNA against TLR3 or TRIF): inhibits apoptosis; fraction of cells in apoptosis (annexin V-positive) (NCI-H1703 cells [4]; NCI-H1703, 100 μg/ml poly(I:C), 24 h, 11% in control wells, FIG. 2): ⅓; percentage of apoptotic cells (annexin V-positive) (NCI-H1703 cells [4]; NCI-H1703, 100 μg/ml poly(I:C), 24 h, caspase 8 expression inhibited by siRNA): ~20%; effect of suppression of caspase 9 expression on poly(I:C)-induced apoptosis (NCI-H1703 cells [4]; NCI-H1703, 100 μg/ml poly(I:C), 24 h, caspase 9 siRNA): no significant effect; fewer living cells (NCI-H1703 cells [5]; 100 μg/ml poly(I:C) alone): 26%; IC50 (NCI-H292 cells [1]; NCI-H292, poly(I:C) used alone, 50% fewer cells than untreated control): 14.3 µg/mL
